One test addresses T1, Pocket X-mutant Arid5a (Mus musculus, UniProt Q3U108, F56C/L84A/V134A/Y137A).
T1 construct: Flag; expressed in transfected cells; host or cells: HEK293T
T1 sequence (Q3U108 1-590 F56C/L84A/V134A/Y137A): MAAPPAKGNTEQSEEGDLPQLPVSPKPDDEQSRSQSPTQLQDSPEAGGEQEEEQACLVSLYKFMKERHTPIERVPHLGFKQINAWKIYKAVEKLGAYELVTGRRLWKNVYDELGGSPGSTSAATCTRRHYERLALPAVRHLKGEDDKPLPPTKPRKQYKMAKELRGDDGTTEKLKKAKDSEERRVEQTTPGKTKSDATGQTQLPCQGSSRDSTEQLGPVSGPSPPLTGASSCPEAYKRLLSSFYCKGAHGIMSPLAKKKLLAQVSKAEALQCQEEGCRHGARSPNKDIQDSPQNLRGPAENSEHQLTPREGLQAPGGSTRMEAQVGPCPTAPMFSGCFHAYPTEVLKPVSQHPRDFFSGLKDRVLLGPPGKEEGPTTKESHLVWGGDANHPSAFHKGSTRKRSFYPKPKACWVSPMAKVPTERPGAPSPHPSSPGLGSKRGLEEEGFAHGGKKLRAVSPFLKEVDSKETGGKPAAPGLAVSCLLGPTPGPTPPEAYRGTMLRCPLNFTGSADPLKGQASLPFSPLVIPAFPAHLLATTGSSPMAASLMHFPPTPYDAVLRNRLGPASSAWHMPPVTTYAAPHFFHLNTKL
Briefly: Luciferase assay on Pocket X-mutant Arid5a (Phe56, Leu84, Val134, Tyr137 substitutions). The settings on record: 40 μM. The test is classed as cell-based. From the text: Briefly, HEK293T cells were transfected with luciferase pGL-3 and empty pcDNA3.1 plasmids (Control), or pGL-3 plasmid encoding the 3′UTR of OX40, Il6 or Stat3, together with Arid5a-expressing pcDNA3.1 plasmid. Substitution mutations were introduced to the wild-type (WT) Arid5a at Phe56, Leu84, Val134 and Tyr137. Single point mutations were used to substitute Phe56 (TTC) with Cys (TGC) and Val134 (GTC) with Ala (GCC). Sequential point mutations were used to substitute Leu84 (CTG) with Ala (GCG) and Tyr137 (TAT) with Ala (GCT). Luciferase activity from cell lysates is shown relative to Control in FIGS. 2A-2C.

The next test has as its system peritoneal macrophages. Briefly: Cytokine secretion by LPS-stimulated peritoneal macrophages. The note with it: 40 μM, LPS 0.5 μg/mL 24 h, compared to LPS alone. The test is classed as cell-based, mice. As for the experimental part: The peritoneal macrophages were stimulated in vitro with 0.5 μg/mL lipopolysaccharides (LPS) (Sigma-Aldrich) for 24 h. The CD4^+ CD62L^+ T cells were isolated and purified from spleen using the MACS isolation kit (Miltenyi). The T cells were cultured in the presence of anti-CD3/CD28 dynabeads (Invitrogen), recombinant mouse IL-6 (30 ng/mL; R&D Systems), recombinant transforming growth factor-β (TGF-β) (4 ng/mL; R&D Systems), anti-interferon-γ (IFN-γ) and anti-IL-4 (10 μg/mL; Biolegend) for 72 h to generate Th17 cells.
The mRNAs and cytokines were quantified as follows. A first strand of cDNA was synthesized from total RNA by using the TaqMan reverse transcription kit. […] The relative expression of mRNAs was calculated by ΔΔCt method. For cytokines quantification in serum and cell culture supernatants, ELISA kits of IL-17a, IL-6, TNF-α (Invitrogen) were used following the manufacturer's instructions.
The anti-inflammatory activity of the Arid5a inhibitor POE was tested in vitro by measuring secretion of pro-inflammatory cytokines by macrophages and differentiated Th17 cells. […] The percentage of CD4^+OX40^+ T cells in the polarized Th17 cells was determined using flow cytometry; the results are shown in FIG. 3D. […]

The next test concerns EAE. Briefly: Experimental autoimmune encephalomyelitis (EAE) model of multiple sclerosis. It counts as in vivo, C57BL/6 female mice.
A further test concerns CIA. Briefly: Collagen-induced arthritis (CIA) model. The test is classed as in vivo, C57BL mice.
Another test relates to IMQ-induced psoriasis. Briefly: IMQ-induced psoriasis model. The test is classed as in vivo, male BALB/c mice. As for the experimental part: Experimental psoriasis was induced following a modified method described previously (Sun et al. 2013). To induce disease in male BALB/c mice (6-8 weeks; n=6), imiquimod (IMG; Sichuan Med-Shine Pharmaceutical) at 5% was applied topically at 20 mg/cm^2 on the inside of the right ear for 8 consecutive days. An evaluation system for assessment of erythema and thickness of the ear was developed. Erythema was assessed using a table with red […] (0-4) and ear thickness (0-4) measured using a digital caliber on days 2, 4, 6, and 8 after first IMQ application. The sum of the two parameters scores (ranging from 0-8) was used to indicate the overall clinical score. Treatment ointment was prepared by mixing 1 mg of DMSO-dissolved POE or its representative analogs including POE A2 or POE A3 with 20 gm of Vaseline Petroleum Jelly Original (vehicle, Unilever Inc.); the mixture was then incubated at room temperature overnight. From day 0 to day 8 the mice were treated topically with the treatment ointment (40 mg/cm^2) or Vaseline (IMQ/control). The mRNAs encoding Il6 and Il17a were isolated from whole biopsies of the ear (day 8) and reverse transcribed to make cDNA. The cDNA was then amplified by real-time PCR using TaqMan Gene Expression Assays (Mm00446190_ml, Mm00439618_ml, respectively; Applied Biosystems). The relative expression of mRNAs was calculated by the ΔΔCt method and presented relative to that of IMQ control mice.

Where [1] appears, read: 0.5 mg i.p., day 24, vs corn oil, FIG. 5B.
Where [2] appears, read: topical ointment, day 8, FIG. 8B.

The structures appear in SMILES notation.

With `O=C(CSc1nnc(-c2ccncc2)o1)c1ccccc1` [POE, 1-Phenyl-2-(5-pyridin-4-yl-[1,3,4]oxadiazol-2-ylsulfanyl)-ethanone], the “Inhibitory effect on stabilizing function of mutant Arid5a on OX40 3′UTR” value on Pocket X-mutant Arid5a (mutations at Phe56, Leu84, Val134, Tyr137, FIG. 2A) is reported as “abolish the inhibitory effects of POE”. Further, the “Inhibitory effect on stabilizing function of mutant Arid5a on Il6 3′UTR” value on Pocket X-mutant Arid5a (mutations at Phe56, Leu84, Val134, Tyr137, FIG. 2B) is listed as “abolish the inhibitory effects of POE”. Moreover, the “Inhibitory effect on stabilizing function of mutant Arid5a on Stat3 3′UTR” value at Pocket X-mutant Arid5a (mutations at Phe56, Leu84, Val134, Tyr137, FIG. 2C) was “abolish the inhibitory effects of POE”. Besides, the “Level of IL-6 in cell culture supernatant” value in the test with peritoneal macrophages (FIG. 3A) was “reduces the level of IL-6”. The “Level of TNF-α in cell culture supernatant” value in the test with peritoneal macrophages (FIG. 3B) is listed as “does not affect the level of TNF-α”. Also, the EAE clinical scores entry in the test with EAE (0.5 mg i.p. per day, days 0-3, vs corn oil, FIG. 5A) is “reduces EAE clinical scores”. Further, in the test with EAE (setting [1]), the “Serum level of IL-6” value was “reduces serum levels of IL-6 and TNF-α”; the “Serum level of TNF-α” value is “reduces serum levels of IL-6 and TNF-α”. Further, the “Expression of OX40 mRNA in CD4+ T cells isolated from the CNS” value in the test on EAE (10 days after disease induction, FIG. 5D) is reported as “reduces the expression of OX40 mRNA”. Also, the “Frequency of CD4+OX40+ T cells in the CNS” value in the test with EAE (10 days after disease induction, flow cytometry, FIG. 5E) is on record as “reduces the frequency of CD4^+OX40^+ T cells”. Also, the “Level of IL-17 in culture supernatant of encephalitogenic CD4+ T cells on restimulation” value in the test on EAE (lymph node cells restimulated with MOG35-55 and IL-23 72 h, FIG. 5C) was “reduces the level of IL-17”. For the same compound, in the test with CIA (0.25 mg i.p. on days 0, 3, 6, 9, 12, 15, 18, vs corn oil, FIG. 7A), the CIA clinical scores result was “comparably reduced CIA clinical scores”. For the same compound, in the test with CIA (0.25 mg i.p., day 45, FIG. 7B), the “Serum level of IL-6” value is “reduced serum levels of IL-6”. In addition, the “Frequency of CD4+IL-17+ cells in the secondary lymphoid organs” value in the test with CIA (0.25 mg i.p., day 45, flow cytometry, FIG. 7C) is “reduced the frequency of CD4^+IL-17^+ cells”. Further, the “Clinical scores (erythema and thickness of the right ear)” value in the test with IMQ-induced psoriasis (topical ointment 40 mg/cm^2 day 0 to 8, vs Vaseline, FIG. 8A) was “comparably reduced clinical scores”. In the test on IMQ-induced psoriasis (setting [2]), the “Il6 mRNA expression in whole biopsies of the right ear” value is given as “suppressed mRNA expression” and the “Il17a mRNA expression in whole biopsies of the right ear” value is on record as “suppressed mRNA expression”.

The values above are taken from patent US11654138B2, “Therapeutic agents for treating and preventing autoimmune diseases and cancer and a screening method” (KING FAISAL UNIVERSITY, priority 2019, dated 2023).
